Experimental data published in ChEMBL document CHEMBL3600368, “Novel broad-spectrum inhibitors of bacterial methionine aminopeptidase” (Bioorg Med Chem Lett, 2015).
In brackets after ≈: the same amount, converted by molar mass. Residues, ends and D or L forms follow the SMILES beside them. *: point of attachment. Cbz = O=C(OCc1ccccc1)*

How the values were obtained:
[1] = Unbound fraction in plasma (unknown origin); type: ADME, cell-free
[2] = Inhibition of Staphylococcus aureus methionine aminopeptidase
[3] = Lipophilicity, log D of the compound; type: physicochemical; conditions: octanol/water
[4] = Inhibition of Haemophilus influenzae methionine aminopeptidase
[5] = Inhibition of Streptococcus pneumoniae methionine aminopeptidase
[6] = Solubility of the compound; type: physicochemical
[7] = Intrinsic clearance in rat liver microsomes; type: ADME; conditions: read-out: CLH
[8] = Inhibition of Escherichia coli methionine aminopeptidase

Structure (SMILES) | fraction unbound [1] | IC50 [2] [µM] | logD [3] | IC50 [4] [µM] | IC50 [5] [µM] | solubility [6] [µM] | microsomal CLint [7] [µL/min/mg] | IC50 [8] [µM]
C[C@H](NC(=O)Cc1cc(F)cc(F)c1)C(=O)N[C@H]1CC=C[C@H](c2ccccc2)N(C)C1=O | 0.051 | > 200 | 2.6 | 60 | 46 | 450 (≈ 199 µg/mL) | 339 | 30
C[C@H](NC(=O)OCc1ccccc1)C(=O)N[C@H]1CC=C[C@H](c2ccccc2)N(C)C1=O | 0.027 |  | 1.65 | 11.3 | 7.4 | 341 (≈ 144 µg/mL) | 720 | 8.1
CC(=O)N[C@@H](C)C(=O)N[C@H]1CC=C[C@H](c2ccccc2)N(C)C1=O |  |  |  | > 200 | > 200 |  |  | > 200
C[C@H](NC(=O)OCc1ccccc1)C(=O)N[C@H]1CC=C[C@@H](c2ccccc2)N(C)C1=O |  |  |  | > 200 | > 200 |  |  | > 200
CN1C(=O)[C@@H](NC(=O)C(C)(C)NC(=O)OCc2ccccc2)CC=C[C@@H]1c1ccccc1 |  |  |  | > 200 | > 200 |  |  | > 200
C[C@@H](C(=O)N[C@H]1CC=C[C@H](c2ccccc2)N(C)C1=O)N(C)C(=O)OCc1ccccc1 |  |  |  | > 200 | > 200 |  |  | > 200
CC(C)[C@H](NC(=O)OCc1ccccc1)C(=O)N[C@H]1CC=C[C@H](c2ccccc2)N(C)C1=O |  |  |  | > 200 | > 200 |  |  | > 200
CN1C(=O)[C@@H](NC(=O)[C@H](CO)NC(=O)OCc2ccccc2)CC=C[C@@H]1c1ccccc1 |  |  |  | 132 | 71.4 |  |  | 102
C[C@H](NC(=O)[C@@H](N)c1ccccc1)C(=O)N[C@H]1CC=C[C@H](C2CCCCC2)N(C)C1=O | 0.108 |  | 1.98 | 6.7 | 0.12 | > 1000 | 93.5 | 1.4
C[C@H](NC(=O)[C@H](N)c1ccccc1)C(=O)N[C@H]1CC=C[C@H](C2CCCCC2)N(C)C1=O |  |  |  | 15.6 | 4 |  |  | 8
C[C@H](N)C(=O)N[C@@H](C)C(=O)N[C@H]1CC=C[C@H](C2CCCCC2)N(C)C1=O |  |  |  | > 200 | > 200 |  |  | > 200
C[C@H](NC(=O)[C@@H](N)Cc1ccccc1)C(=O)N[C@H]1CC=C[C@H](C2CCCCC2)N(C)C1=O | 0.109 |  | 2.2 | 4.7 | 9.7 | > 1000 | 689 | 2.2
C[C@H](NC(=O)[C@@H](N)c1cccc(Cl)c1)C(=O)N[C@H]1CC=C[C@H](C2CCCCC2)N(C)C1=O | 0.016 |  | 2.69 | 1.1 | 0.3 | 888 (≈ 409 µg/mL) | 159 | 0.8
C[C@H](NC(=O)[C@H](C)NC(=O)OCc1ccccc1)C(N)=O (Cbz-Ala-Ala-NH2) |  |  |  | > 200 | > 200 |  |  | > 200
